Experimental data published in patent US11066408B2, “Crystalline binary sodium salts of 5-methyl-(6S)-tetrahydrofolic acid with organic bases” (MERCK PATENT GMBH, priority 2017, dated 2021).

Method: The measurement of the kinetic solubility was conducted as described in the experimental part.
0.5 ml of purified/de-ionized water (for instance water for chromatography) is added.
2.535 ml of purified/de-ionized water (for instance water for chromatography) is added to the solid using an adjustable volumetric pipette. The mixture is vigorously agitated at room temperature and briefly sonicated.
Then 0.785 ml of purified/de-ionized water is added.
Then 1.0 ml of purified/de-ionized water is added.

CN1c2c([nH]c(N)nc2=O)NC[C@@H]1CNc1ccc(C(=O)N[C@@H](CCC(=O)[O-])C(=O)[O-])cc1.[Ca+2] [calcium salt of 5-methyl-(6S)-tetrahydrofolic acid]
kinetic solubility in water (purified/de-ionized water, room temperature, agitated (briefly sonicated), not assay corrected): smaller than 10 mg per 1 ml of water | time until a clear solution is obtained (weighed solid plus water, agitated at room temperature): No clear solution can be obtained
